Reference: publication PMC10916352, “Safety Evaluation of a Prototypical Diazirine-Based Covalent Crosslinker and Molecular Adhesive” (International Journal of Toxicology, 2023)

Tests used:
[1] = 3T3 Neutral Red uptake cytotoxicity and phototoxicity assay; conditions: mouse, Balb/c 3T3 fibroblasts (clone 31); for viability: Viability of cells over all tested concentrations, .316 to 1000 μg/mL
Experimental: (§1) The 3T3 Neutral Red uptake assay was used to evaluate the phototoxicity of BondLynx. The NRU assay makes use of Neutral Red dye, a weak cationic dye that penetrates the cell membrane by non-ionic passive diffusion and accumulates in lysosomes. Cytotoxicity of the test material is evaluated by measuring the OD540 to assess the uptake of Neutral Red dye.[28],[29] […] By measuring cytotoxicity in the absence vs presence of UV and visible light, the phototoxicity of the test material can be determined.[30],[31]
(§2) Cells were routinely trypsinized and passaged, at least once weekly, with a split ratio 1:3 to 1:4 to achieve a near confluent culture.
(§3) Stock solutions of both controls were freshly prepared on the day of testing. The vehicle control was 1% DMSO in EBSS for the positive control, EBSS for the negative control, and .5% ethanol in EBSS for BondLynx. BondLynx was dissolved in ethanol for testing. […] All controls and BondLynx were handled in the dark and tested in 8-fold.
(§4) In preparation for testing, cultures of 3T3 fibroblasts were trypsinized and resuspended in culture medium. […] A total of six plates were prepared in this manner – two each for the positive control, the negative control, and BondLynx. Following incubation, the cell culture medium was removed, and the wells washed with DPBS (Dulbecco’s phosphate-buffered saline). A 200 μL aliquot of each dilution of the test compound (BondLynx or a control) was added the first eight columns, and the appropriate vehicle control was added to the last four columns. All plates were incubated an additional 60 min before irradiating one plate for each test compound (+Irr) in a solar simulator with a WG320 nm filter for 22 min (equivalent to 5 J/cm^2 UV-A), while the second plate for each test compound (–Irr) was kept in the dark at room temperature. Subsequently, the test solutions were removed from the plates, and the cells were washed once with DPBS and suspended in 200 μL of supplemented DMEM to incubate for an additional 20-24 h.
(§5) Immediately following incubation, the confluency of each plate was visually assessed, and the culture medium was replaced with 100 μL of Neutral Red dye (50 μg/mL). The plates were incubated another 3.5 h before removing the dye, washing with 150 μL of DPBS, and shaking for 20-40 min in 150 μL Neutral Red destain solution (ethanol:acetic acid:distilled water, 50:1:49). The optical density at 540 nm was measured for each well and corrected by subtracting the appropriate blank.

[2] = tested on: Balb/c 3T3 fibroblasts (clone 31); experiment: as above; conditions: for Corrected Mean OD540: 8 wells
Experimental: as §1, §2, §3, §4, §5

Structure (SMILES): FC(F)(F)C1(c2ccc(C(c3ccc(C4(C(F)(F)F)N=N4)cc3)(C(F)(F)F)C(F)(F)F)cc2)N=N1 [BondLynx, 2,2-bis-[4-[3-(trifluoromethyl)-3H-diazirin-3-yl]phenyl]hexafluoropropane]
- viability at 82 min, 0.316 μg/mL ([1]; Viability (%), +Irr): 101%
- viability at 82 min, 1 μg/mL ([1]; Viability (%), +Irr): 99.6%
- viability at 82 min, 3.16 μg/mL ([1]; Viability (%), +Irr): 101%
- viability at 82 min, 10 μg/mL ([1]; Viability (%), +Irr): 103%
- viability at 82 min, 31.6 μg/mL ([1]; Viability (%), +Irr): 106%
- viability at 100 μg/mL ([1]; Viability (%), +Irr, 100 μg/mL): 110%
- viability at 82 min, 316 μg/mL ([1]; Viability (%), +Irr): 111%
- viability at 82 min, 1000 μg/mL ([1]; Viability (%), +Irr): 105%
- viability at 82 min, 0.316 μg/mL ([1]; Viability (%), –Irr): 102%
- viability at 82 min, 1 μg/mL ([1]; Viability (%), –Irr): 101%
- viability at 82 min, 3.16 μg/mL ([1]; Viability (%), –Irr): 100%
- viability at 82 min, 10 μg/mL ([1]; Viability (%), –Irr): 97.4%
- viability at 82 min, 31.6 μg/mL ([1]; Viability (%), –Irr): 98.3%
- viability at 82 min, 100 μg/mL ([1]; Viability (%), –Irr, 100 μg/mL): 100%
- viability at 82 min, 316 μg/mL ([1]; Viability (%), –Irr): 101%
- viability at 82 min, 1000 μg/mL ([1]; Viability (%), –Irr): 93%
- viability ([1]; Irr+): 105 ± 4%
- viability ([1]; Irr−): 99 ± 3%
- Phototoxicity classification ([2]; 3T3 NRU phototoxicity test): non-phototoxic
- Corrected Mean OD540 ([2]; +Irr, 0.316 μg/mL): 1.135
- Corrected Mean OD540 ([2]; +Irr, 1 μg/mL): 1.116
- Corrected Mean OD540 ([2]; +Irr, 3.16 μg/mL): 1.13
- Corrected Mean OD540 ([2]; +Irr, 10 μg/mL): 1.149
- Corrected Mean OD540 ([2]; +Irr, 31.6 μg/mL): 1.19
- Corrected Mean OD540 ([2]; +Irr, 100 μg/mL): 1.236
- Corrected Mean OD540 ([2]; +Irr, 316 μg/mL): 1.24
- Corrected Mean OD540 ([2]; +Irr, 1000 μg/mL): 1.18
- IC50 (50% inhibition of Neutral Red uptake), presence of irradiation ([2]; +Irr, 5 J/cm^2 UV-A): no IC50
- Photo Irritation Factor (PIF) ([2]; non-irradiated IC50 divided by irradiated IC50): no PIF could be calculated
- Cytotoxicity ([2]; presence and absence of UV-A, .316 to 1000 μg/mL): no cytotoxicity
- IC50 (50% inhibition of Neutral Red uptake), absence of irradiation ([2]; –Irr): no IC50
- Corrected Mean OD540 ([2]; –Irr, 0.316 μg/mL): 1.17
- Corrected Mean OD540 ([2]; –Irr, 1 μg/mL): 1.16
- Corrected Mean OD540 ([2]; –Irr, 3.16 μg/mL): 1.15
- Corrected Mean OD540 ([2]; –Irr, 10 μg/mL): 1.12
- Corrected Mean OD540 ([2]; –Irr, 31.6 μg/mL): 1.13
- Corrected Mean OD540 ([2]; –Irr, 100 μg/mL): 1.15
- Corrected Mean OD540 ([2]; –Irr, 316 μg/mL): 1.16
- Corrected Mean OD540 ([2]; –Irr, 1000 μg/mL): 1.07
